Data from patent US12371428B2 (Exelixis, Inc., priority 2019, dated 2025).

Experiments:
[1] = target: Met (phospho-Met, HGF-stimulated PC-3 prostate cancer cells) (Homo sapiens (Human), UniProt P08581); test: Met autophosphorylation ELISA in PC-3 cells (Example F); assay type: cell-based; settings: cellular activity; Met autophosphorylation ELISA in PC-3 cells; read-out: c-Met IC50
Method in brief: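 Sandwich ELISA for phospho-Met (panTyr) in PC-3 lysates. Cells starved 3 h serum-free, compound 1 h (8-pt curve, 0.3% DMSO), HGF 100 ng/mL 10 min. 100% = HGF + DMSO; 0% = HGF + reference inhibitor. IC50 by 4-parameter fit.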

[2] = target: Human MET (residues 956-1390) (Homo sapiens (Human), UniProt P08581); test: Human Met kinase assay, HTRF KinEase (Example D-2); assay type: biochemical; settings: protocol of Example D-2 (other compounds); read-out: c-Met IC50
Method in brief: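 IC50 values come from a 4-parameter logistic fit of the […] fluorescence ratio, set between DMSO (100%) and reference compound at 1 μM (0%). Reactions held MET 956-1390 at 0.1 ng/well, ATP at Km, biotinylated peptide, 5 mM MgCl2, 1 mM MnCl2, 1 mM DTT and 3% DMSO, and ran 40 min at room temperature before streptavidin-XL665/Eu-antibody detection.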

[3] = target: KDR (phospho-KDR, VEGF165-stimulated HUVEC cells) (Homo sapiens (Human), UniProt P35968); test: KDR autophosphorylation ELISA in HUVEC cells (Example G); assay type: cell-based; settings: cellular activity; KDR autophosphorylation ELISA in HUVEC cells
Method in brief: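 Inhibition of VEGF165-driven KDR autophosphorylation is measured in primary human umbilical vein endothelial cells after 24 h serum deprivation. Compound preincubation lasts 1 h before a 5-minute challenge with 100 ng/mL ligand, and phosphorylated receptor is then measured by ELISA in the lysates.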

[4] = target: Human MER (residues 528-999) (Homo sapiens (Human), UniProt Q12866); test: Human Mer kinase assay, HTRF KinEase (Example C-2); assay type: biochemical; settings: protocol of Example C-2 (other compounds)
Method in brief: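 IC50 values from 10 concentrations via 4-parameter logistic fit of […], with DMSO as 100% and 1 μM reference compound as 0% activity. Reaction: MER kinase domain 528-999, 1 ng/well, 40 μM ATP (Km), biotin peptide, 5 mM MgCl2, 1 mM DTT, 3% DMSO, room temperature 60 min; HTRF streptavidin-XL665/Eu-antibody detection.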

Chain of Met (phospho-Met, HGF-stimulated PC-3 prostate cancer cells) (P08581 25-1390): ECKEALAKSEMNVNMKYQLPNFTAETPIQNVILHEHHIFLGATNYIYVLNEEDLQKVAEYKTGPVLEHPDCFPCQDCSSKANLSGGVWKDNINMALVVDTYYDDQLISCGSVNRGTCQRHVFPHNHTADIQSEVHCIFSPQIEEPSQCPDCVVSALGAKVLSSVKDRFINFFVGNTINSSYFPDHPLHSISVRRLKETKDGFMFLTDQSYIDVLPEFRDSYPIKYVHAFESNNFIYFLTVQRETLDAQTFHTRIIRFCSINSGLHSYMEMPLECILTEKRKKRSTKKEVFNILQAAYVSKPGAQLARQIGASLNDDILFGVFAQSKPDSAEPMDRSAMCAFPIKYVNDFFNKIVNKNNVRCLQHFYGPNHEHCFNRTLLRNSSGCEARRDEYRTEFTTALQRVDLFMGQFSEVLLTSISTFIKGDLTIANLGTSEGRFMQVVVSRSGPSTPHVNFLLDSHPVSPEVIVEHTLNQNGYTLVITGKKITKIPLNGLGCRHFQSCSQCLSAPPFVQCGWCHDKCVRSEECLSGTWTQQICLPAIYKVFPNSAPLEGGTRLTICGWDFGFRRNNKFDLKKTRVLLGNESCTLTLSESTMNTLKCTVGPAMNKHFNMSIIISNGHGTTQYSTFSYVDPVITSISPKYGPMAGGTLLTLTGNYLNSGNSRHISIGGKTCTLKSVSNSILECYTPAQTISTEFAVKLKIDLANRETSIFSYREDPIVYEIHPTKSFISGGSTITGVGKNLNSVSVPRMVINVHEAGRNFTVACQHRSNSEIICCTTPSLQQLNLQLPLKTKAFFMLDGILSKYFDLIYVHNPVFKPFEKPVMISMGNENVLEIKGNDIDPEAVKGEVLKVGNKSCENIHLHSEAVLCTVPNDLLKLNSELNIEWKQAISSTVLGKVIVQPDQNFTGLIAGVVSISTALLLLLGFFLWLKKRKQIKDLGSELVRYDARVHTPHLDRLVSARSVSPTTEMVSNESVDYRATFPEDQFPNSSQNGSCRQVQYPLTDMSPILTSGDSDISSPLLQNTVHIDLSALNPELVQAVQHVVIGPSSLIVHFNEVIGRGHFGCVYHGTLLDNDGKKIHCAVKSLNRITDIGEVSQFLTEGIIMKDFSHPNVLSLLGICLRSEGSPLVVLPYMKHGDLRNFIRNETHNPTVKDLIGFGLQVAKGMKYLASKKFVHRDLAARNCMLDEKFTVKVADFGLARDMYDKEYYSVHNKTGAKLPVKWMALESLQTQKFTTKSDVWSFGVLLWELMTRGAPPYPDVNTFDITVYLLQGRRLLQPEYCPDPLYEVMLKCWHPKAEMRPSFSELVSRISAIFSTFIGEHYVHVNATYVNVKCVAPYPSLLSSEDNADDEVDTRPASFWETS
Chain of Human MER (residues 528-999) (Q12866 528-999): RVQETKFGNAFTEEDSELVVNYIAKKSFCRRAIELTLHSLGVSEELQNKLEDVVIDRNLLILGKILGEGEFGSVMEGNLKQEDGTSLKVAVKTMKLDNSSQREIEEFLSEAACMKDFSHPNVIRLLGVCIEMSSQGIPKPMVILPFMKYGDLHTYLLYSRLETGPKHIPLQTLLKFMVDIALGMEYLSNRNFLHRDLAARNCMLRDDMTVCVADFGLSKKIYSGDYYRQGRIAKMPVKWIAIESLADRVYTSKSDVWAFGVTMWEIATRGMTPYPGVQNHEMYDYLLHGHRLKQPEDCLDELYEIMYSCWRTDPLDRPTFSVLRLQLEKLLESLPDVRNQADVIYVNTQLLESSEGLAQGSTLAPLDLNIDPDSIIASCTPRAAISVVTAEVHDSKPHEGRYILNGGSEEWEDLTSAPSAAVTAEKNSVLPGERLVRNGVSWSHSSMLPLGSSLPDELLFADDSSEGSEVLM
Chain of KDR (phospho-KDR, VEGF165-stimulated HUVEC cells) (P35968 20-1356): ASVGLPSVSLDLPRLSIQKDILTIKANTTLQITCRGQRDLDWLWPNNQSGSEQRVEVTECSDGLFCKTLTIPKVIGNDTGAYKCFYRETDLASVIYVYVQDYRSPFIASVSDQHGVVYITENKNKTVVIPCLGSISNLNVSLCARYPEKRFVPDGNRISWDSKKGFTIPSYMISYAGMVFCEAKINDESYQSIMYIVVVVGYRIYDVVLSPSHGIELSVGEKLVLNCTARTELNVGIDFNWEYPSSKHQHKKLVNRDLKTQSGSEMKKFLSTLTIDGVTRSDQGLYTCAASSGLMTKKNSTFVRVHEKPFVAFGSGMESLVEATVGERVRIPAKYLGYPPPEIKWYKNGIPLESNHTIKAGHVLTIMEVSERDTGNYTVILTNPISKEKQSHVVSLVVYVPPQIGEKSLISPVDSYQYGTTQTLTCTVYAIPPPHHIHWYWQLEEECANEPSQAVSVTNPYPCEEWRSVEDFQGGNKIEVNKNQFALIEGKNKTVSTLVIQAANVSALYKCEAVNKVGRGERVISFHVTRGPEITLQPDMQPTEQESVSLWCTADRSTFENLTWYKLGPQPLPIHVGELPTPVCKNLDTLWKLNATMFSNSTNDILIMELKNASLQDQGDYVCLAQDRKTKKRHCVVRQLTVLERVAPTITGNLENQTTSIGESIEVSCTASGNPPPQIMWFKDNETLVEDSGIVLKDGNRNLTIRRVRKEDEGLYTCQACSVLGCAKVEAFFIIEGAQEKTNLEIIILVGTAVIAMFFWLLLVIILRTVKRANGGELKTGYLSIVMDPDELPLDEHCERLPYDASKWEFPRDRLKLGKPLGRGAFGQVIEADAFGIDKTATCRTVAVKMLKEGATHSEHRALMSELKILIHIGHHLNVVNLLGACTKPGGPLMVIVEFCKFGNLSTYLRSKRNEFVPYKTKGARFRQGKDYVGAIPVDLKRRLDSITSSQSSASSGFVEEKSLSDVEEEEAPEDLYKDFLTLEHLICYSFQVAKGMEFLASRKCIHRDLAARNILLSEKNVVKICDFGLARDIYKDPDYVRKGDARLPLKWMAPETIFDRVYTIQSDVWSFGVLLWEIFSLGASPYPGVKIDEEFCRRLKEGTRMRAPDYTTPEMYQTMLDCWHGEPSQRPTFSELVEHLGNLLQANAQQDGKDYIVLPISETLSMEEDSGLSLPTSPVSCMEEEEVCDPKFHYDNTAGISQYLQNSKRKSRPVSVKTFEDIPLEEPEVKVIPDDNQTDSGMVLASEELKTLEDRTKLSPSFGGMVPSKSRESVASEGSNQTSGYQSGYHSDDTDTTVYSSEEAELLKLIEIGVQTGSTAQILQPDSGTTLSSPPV
Chain of Human MET (residues 956-1390) (P08581 956-1390): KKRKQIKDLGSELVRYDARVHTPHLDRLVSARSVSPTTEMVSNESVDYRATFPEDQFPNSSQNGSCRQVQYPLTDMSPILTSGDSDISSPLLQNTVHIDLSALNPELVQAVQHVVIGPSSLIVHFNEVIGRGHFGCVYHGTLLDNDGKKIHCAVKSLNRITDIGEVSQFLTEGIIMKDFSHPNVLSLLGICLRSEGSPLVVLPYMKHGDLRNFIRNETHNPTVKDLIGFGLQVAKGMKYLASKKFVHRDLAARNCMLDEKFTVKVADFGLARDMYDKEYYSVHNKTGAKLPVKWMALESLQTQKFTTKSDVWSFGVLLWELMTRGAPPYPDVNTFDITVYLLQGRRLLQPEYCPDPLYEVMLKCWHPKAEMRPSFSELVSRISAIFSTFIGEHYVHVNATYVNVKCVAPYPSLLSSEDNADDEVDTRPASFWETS

In the case of COc1cnc2c(Oc3ccc(NC(=O)c4nccn(-c5ccc(F)cc5)c4=O)cc3)ccnc2c1 [Compound 382, 4-(4-fluorophenyl)-N-[4-[(7-methoxy-1,5-naphthyridin-4-yl)oxy]phenyl]-3-oxopyrazine-2-carboxamide], the IC50 [1] is reported as < 100 nM, the IC50 [2] is reported as < 100 nM and the IC50 [3] is reported as > 300 nM. The IC50 [4] was < 100 nM.
With COc1cc2nccc(Oc3ccc(NC(=O)c4cc(C)c(C)n(-c5ccc(F)cc5)c4=O)cc3F)c2nc1OC [Compound 370, N-[4-[(6,7-dimethoxy-1,5-naphthyridin-4-yl)oxy]-3-fluorophenyl]-1-(4-fluorophenyl)-5,6-dimethyl-2-oxopyridine-3-carboxamide] the IC50 [1] was < 100 nM, the IC50 [2] was < 100 nM and the IC50 [3] was < 100 nM. The IC50 [4] was < 100 nM.
COc1ccc2nccc(Oc3ccc(NC(=O)c4cn(C(C)C)c(C)c(-c5ccc(F)cc5)c4=O)cc3)c2n1 [Compound 341, 5-(4-fluorophenyl)-N-[4-[(6-methoxy-1,5-naphthyridin-4-yl)oxy]phenyl]-6-methyl-4-oxo-1-propan-2-ylpyridine-3-carboxamide] was tested, and the IC50 [1] was < 100 nM, the IC50 [2] was < 100 nM and the IC50 [3] was > 300 nM. The IC50 [4] was < 100 nM.
With COc1cnc2c(Oc3ccc(NC(=O)c4c(C)ccn(-c5ccc(F)cc5)c4=O)cc3F)ccnc2c1 [Compound 294, N-[3-Fluoro-4-[(7-methoxy-1,5-naphthyridin-4-yl)oxy]phenyl]-1-(4-fluorophenyl)-4-methyl-2-oxopyridine-3-carboxamide] the IC50 [1] was < 100 nM, the IC50 [2] was < 100 nM and the IC50 [3] was < 100 nM. The IC50 [4] was < 100 nM.
With COc1ccc2nccc(Oc3ccc(NC(=O)c4c(C)nc(C)c(-c5ccc(F)cc5)c4O)cc3)c2n1 [Compound 340, 5-(4-fluorophenyl)-4-hydroxy-N-[4-[(6-methoxy-1,5-naphthyridin-4-yl)oxy]phenyl]-2,6-dimethylpyridine-3-carboxamide] the IC50 [1] was < 100 nM, the IC50 [2] was < 100 nM and the IC50 [3] was < 100 nM. The IC50 [4] was < 100 nM.
In the case of Cc1nc(C)c(-c2ccc(F)cc2)c(O)c1C(=O)Nc1ccc(Oc2ccnc3ccc(OCCN(C)C)nc23)c(F)c1 [Compound 354, N-[4-[[6-[2-(dimethylamino)ethoxy]-1,5-naphthyridin-4-yl]oxy]-3-fluorophenyl]-5-(4-fluorophenyl)-4-hydroxy-2,6-dimethylpyridine-3-carboxamide], the IC50 [1] is reported as < 100 nM, the IC50 [2] is reported as < 100 nM and the IC50 [3] is reported as < 100 nM. For the same compound, the IC50 [4] was < 100 nM.
COCc1c(-c2ccc(F)cc2)c(=O)c(C(=O)Nc2ccc(Oc3ccnc4cc(OC)c(OC)nc34)c(F)c2)cn1C [Compound 269, N-[4-[(6,7-Dimethoxy-1,5-naphthyridin-4-yl)oxy]-3-fluorophenyl]-5-(4-fluorophenyl)-6-(methoxymethyl)-1-methyl-4-oxopyridine-3-carboxamide] was tested, and the IC50 [1] was < 100 nM, the IC50 [2] was < 100 nM and the IC50 [3] was > 300 nM. The IC50 [4] was < 100 nM.
COc1cc2nccc(Oc3ccc(NC(=O)c4c(C)cc(C)n(-c5ccc(F)cc5C)c4=O)cc3F)c2nc1OC [Compound 298, N-[4-[(6,7-Dimethoxy-1,5-naphthyridin-4-yl)oxy]-3-fluorophenyl]-1-(4-fluoro-2-methylphenyl)-4,6-dimethyl-2-oxopyridine-3-carboxamide] was tested, and the IC50 [1] was < 100 nM, the IC50 [2] was 100 to 300 nM and the IC50 [3] was < 100 nM. The IC50 [4] was < 100 nM.
For COc1cnc2c(Oc3ccc(NC(=O)c4nccn(-c5ccc(F)cc5)c4=O)cc3F)ccnc2c1 [Compound 381, N-[3-fluoro-4-[(7-methoxy-1,5-naphthyridin-4-yl)oxy]phenyl]-4-(4-fluorophenyl)-3-oxopyrazine-2-carboxamide], the IC50 [1] was < 100 nM, the IC50 [2] was < 100 nM and the IC50 [3] was > 300 nM. For the same compound, the IC50 [4] was < 100 nM.
With Cc1ccc(C(=O)Nc2ccc(Oc3ccnc4ccc(OCCN(C)C)nc34)c(F)c2)c(=O)n1-c1ccc(F)cc1 [Compound 353, N-[4-[[6-[2-(dimethylamino)ethoxy]-1,5-naphthyridin-4-yl]oxy]-3-fluorophenyl]-1-(4-fluorophenyl)-6-methyl-2-oxopyridine-3-carboxamide] the IC50 [1] was < 100 nM, the IC50 [2] was < 100 nM and the IC50 [3] was < 100 nM. The IC50 [4] was < 100 nM.
For COc1cc2nccc(Oc3ccc(NC(=O)c4cn(C)c(CO)c(-c5ccc(F)cc5C)c4=O)cc3F)c2nc1OC [Compound 282, N-[4-[(6,7-Dimethoxy-1,5-naphthyridin-4-yl)oxy]-3-fluorophenyl]-5-(4-fluoro-2-methylphenyl)-6-(hydroxymethyl)-1-methyl-4-oxopyridine-3-carboxamide], the IC50 [1] was < 100 nM, the IC50 [2] was < 100 nM and the IC50 [3] was < 100 nM. For the same compound, the IC50 [4] was < 100 nM.
With COc1cnc2c(Oc3ccc(NC(=O)c4cccn(-c5ccc(F)cc5)c4=O)cc3F)ccnc2c1 [Compound 291, N-[3-Fluoro-4-[(7-methoxy-1,5-naphthyridin-4-yl)oxy]phenyl]-1-(4-fluorophenyl)-2-oxopyridine-3-carboxamide] the IC50 [1] was < 100 nM, the IC50 [2] was < 100 nM and the IC50 [3] was < 100 nM. The IC50 [4] was < 100 nM.
In the case of COc1ccc2nccc(Oc3ccc(NC(=O)c4c(C)nc(C)c(-c5ccc(F)cc5)c4O)cc3F)c2c1 [Compound 345, N-[3-fluoro-4-(6-methoxyquinolin-4-yl)oxyphenyl]-5-(4-fluorophenyl)-4-hydroxy-2,6-dimethylpyridine-3-carboxamide], the IC50 [1] is reported as < 100 nM, the IC50 [2] is reported as < 100 nM and the IC50 [3] is reported as < 100 nM. For the same compound, the IC50 [4] was < 100 nM.
COc1ccc2nccc(Oc3ccc(NC(=O)c4c(C)ccn(-c5ccc(F)cc5)c4=O)cc3F)c2n1 [Compound 287, N-[3-Fluoro-4-[(6-methoxy-1,5-naphthyridin-4-yl)oxy]phenyl]-1-(4-fluorophenyl)-4-methyl-2-oxopyridine-3-carboxamide] was tested, and the IC50 [1] was < 100 nM, the IC50 [2] was 100 to 300 nM and the IC50 [3] was < 100 nM. The IC50 [4] was < 100 nM.
COc1cnc2c(Oc3ccc(NC(=O)c4c(C)ccn(-c5ccc(F)cc5)c4=O)cc3)ccnc2c1 [Compound 300, 1-(4-Fluorophenyl)-N-[4-[(7-methoxy-1,5-naphthyridin-4-yl)oxy]phenyl]-4-methyl-2-oxopyridine-3-carboxamide] was tested, and the IC50 [1] was < 100 nM, the IC50 [2] was 100 to 300 nM and the IC50 [3] was < 100 nM. The IC50 [4] was < 100 nM.
For COc1cc2nccc(Oc3ccc(NC(=O)c4c(C)cc(C)n(-c5ccc(F)cc5)c4=O)cc3)c2nc1OC [Compound 288, N-[4-[(6,7-Dimethoxy-1,5-naphthyridin-4-yl)oxy]phenyl]-1-(4-fluorophenyl)-4,6-dimethyl-2-oxopyridine-3-carboxamide], the IC50 [1] was < 100 nM, the IC50 [2] was < 100 nM and the IC50 [3] was < 100 nM. For the same compound, the IC50 [4] was < 100 nM.
COc1ccc2nccc(Oc3ccc(NC(=O)c4ccc(C)n(-c5ccc(F)cc5)c4=O)cc3)c2n1 [Compound 343, 1-(4-fluorophenyl)-N-[4-[(6-methoxy-1,5-naphthyridin-4-yl)oxy]phenyl]-6-methyl-2-oxopyridine-3-carboxamide] was tested, and the IC50 [1] was < 100 nM, the IC50 [2] was < 100 nM and the IC50 [3] was < 100 nM. The IC50 [4] was < 100 nM.
For COc1ccc2nccc(Oc3ccc(NC(=O)c4cn(C)c(C)c(-c5ccc(F)cc5)c4=O)cc3)c2n1 [Compound 356, 5-(4-fluorophenyl)-N-[4-[(6-methoxy-1,5-naphthyridin-4-yl)oxy]phenyl]-1,6-dimethyl-4-oxopyridine-3-carboxamide], the IC50 [1] was < 100 nM, the IC50 [2] was 100 to 300 nM and the IC50 [3] was > 300 nM. The IC50 [4] was < 100 nM.
